Measured values: publication PMC7938888, “Antidepressant drugs act by directly binding to TRKB neurotrophin receptors” (Cell, 2021)
pKd: −log10 of the molar value.

Legend:
TRKA = target: T1, TRKA (Homo sapiens, UniProt P04629); experiment: Cell-free ligand binding assay, TRKA from MG87 cells; conditions: compared to TRKB
T1 construct: expressed in transfected cells; host or cells: MG87.TRKA (NIH 3T3 mouse fibroblasts stably expressing TRKA)

TRKB [1] = target: T2, TRKB (Mus musculus, UniProt P15209); experiment: Cell-free ligand binding assay on immobilised TRKB from HEK293T lysates; design: wild-type GFP-tagged full length TRKB or the GFP-tagged Y433F TRKB mutant; host or cells: HEK293T; conditions: read-out: Kd of biotinylated FLX binding to immunoprecipitated TRKB; biotinylated ligand 0-100 μM
T2 sequence (P15209 32-821): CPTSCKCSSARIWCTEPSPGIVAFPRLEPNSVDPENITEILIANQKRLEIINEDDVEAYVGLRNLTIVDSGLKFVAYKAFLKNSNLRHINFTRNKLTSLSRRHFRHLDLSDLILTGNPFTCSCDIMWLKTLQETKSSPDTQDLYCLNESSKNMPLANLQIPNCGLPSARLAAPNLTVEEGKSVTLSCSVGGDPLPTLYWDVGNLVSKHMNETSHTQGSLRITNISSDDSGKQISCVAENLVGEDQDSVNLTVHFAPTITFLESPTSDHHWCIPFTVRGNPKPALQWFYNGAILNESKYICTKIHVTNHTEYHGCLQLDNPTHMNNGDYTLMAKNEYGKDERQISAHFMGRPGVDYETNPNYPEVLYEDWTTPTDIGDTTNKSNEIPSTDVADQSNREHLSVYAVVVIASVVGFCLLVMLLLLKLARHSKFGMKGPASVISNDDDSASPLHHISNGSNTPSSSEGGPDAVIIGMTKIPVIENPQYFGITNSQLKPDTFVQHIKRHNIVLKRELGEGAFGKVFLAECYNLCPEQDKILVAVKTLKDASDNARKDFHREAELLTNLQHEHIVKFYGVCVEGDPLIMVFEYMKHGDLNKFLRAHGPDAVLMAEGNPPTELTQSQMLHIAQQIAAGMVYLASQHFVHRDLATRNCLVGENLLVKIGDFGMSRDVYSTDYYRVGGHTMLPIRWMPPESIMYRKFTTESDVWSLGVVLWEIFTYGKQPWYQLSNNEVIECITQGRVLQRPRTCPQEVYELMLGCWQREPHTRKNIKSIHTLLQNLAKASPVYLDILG
Description: The cell-free assays (binding assays) were performed in white 96-well plates, based on the protocol used for western-blotting or ELISA ([Baeza-Raja et al., 2016]; [Das et al., 2015]). The plates were precoated with anti-GFP, anti-FLAG, anti-TRK or anti-TRKB antibody (1:1000) in carbonate buffer (pH 9.8), ON at 4°C. Following blocking with 3% BSA in PBS buffer (2 h at RT), 120 ug of total protein from each sample (of lysates from HEK293T cells transfected to overexpress GFP-TRKB.wt or GFP-TRKB.Y433F) were added and incubated overnight at 4°C under agitation. […] The luminescence was determined via HRP-conjugated streptavidin (1:10000, 1h, RT) activity reaction with ECL by a plate reader. The luminescence signal from blank wells (containing all the reagents but the sample lystates, substituted by the blocking buffer) was used as background. The specific signal was then calculated by subtracting the values of blank wells from the values of the samples with matched concentration of the biotinylated ligand. For Figure 2E, the precipitated TRKB.wt or Y433F was incubated with tritiated imipramine (0-30μM) and the radioactive emission of the ligand was determined by scintillation (OptiPhase Supermix cocktail: #1200-439; MicroBeta2, Perkin-Elmer). The scintillation signal from blank wells was used as background, and the specific signal was then calculated by subtracting the values of blank wells from the values of the samples with matched concentration of the radioactive ligand.

TRKB [2] = target: T2, TRKB; experiment: In situ proximity ligation assay (PLA) in TRKB-expressing N2A cells; format: cell-based; design: expressed in transfected cells; host or cells: N2A; conditions: biotinylated fluoxetine 10 μM/15 min
Description: Proximity ligation assay was done with Duolink In Situ Red Starter Kit Mouse/Goat (#DUO92103, Sigma-Aldrich), following manufacturer’s instructions. […] Cells were fixed with PFA 4% for 15 min, washed, and incubated in Duolink blocking buffer for 1h at 37°C. Then, the coverslips were incubated with streptavidin-conjugated HRP (1:5000 in Duolink antibody diluent) for 45 min at room temperature. After washing twice in Duolink washing buffer A, samples were incubated overnight at 4°C with a mix of goat anti-TRKB (1:1000, #AF1494, R&D System) and mouse anti-HRP (1:1000, #200-3138-0100, Rockland Immunochemicals) diluted in Duolink antibody diluent. After washing in Duolink washing buffer A, samples were incubated for 1h at 37°C with a mix of minus and plus probes diluted 1:5 in Duolink antibody diluent. Then, ligation of probes with connector oligo was done by washing the samples in washing buffer A, and incubating for 30min at 37°C with ligase (25 U/ml) diluted in the Duolink ligation buffer. Amplification was done by washing the samples in the washing buffer A, and incubating for 100min at 37°C with polymerase (125 U/ml) diluted in the amplification buffer. Coverslips were washed in buffer B, then in buffer B diluted 1:100 in milliQ water, and mounted in Duolink in situ mounting medium with DAPI. All incubation steps were done in a humidified chamber. […]

Sprague-Dawley rats = experiment: BDNF-induced LTP in dentate gyrus of anesthetized rats; format: in vivo, rat; conditions: pravastatin 10 mg/kg/day/ in drinking water
Description: In vivo electrophysiology. Intrahippocampal BDNF infusion was performed as described previously ([Messaoudi et al., 1998]). The experiments were carried out on 20 adult male Sprague-Dawley rats (15 weeks old, Janvier, France). Rats were housed in the animal facility for 1-week prior to the start of drug administration. […]
For electrophysiological experiments, rats were anesthetized with an intraperitoneal injection of urethane (U2500, Sigma-Aldrich) 1.5 g/kg body weight, positioned in a stereotaxic frame. The body temperature was constantly monitored and maintained at 37°C with an electric heating pad. Holes were drilled in the skull and a concentric bipolar stimulating electrode (Tip separation 500micrometers; SNEX 100; Rhodes Medical Instruments, Woodland Hills, CA) was positioned in the angular bundle for stimulation of the medial perforant path (7.9 mm posterior to bregma, 4.2 mm lateral to the midline, and 2.5 mm below the dura. […]
Responses were allowed to stabilize for 1 hour at a stimulation intensity that produced a population spike 30% of maximum. […] Evoked responses were recorded for 120 min post infusion. Recorded field potentials were amplified, filtered (0.1 Hz to 10 kHz), and digitized (25 kHz). Electrophysiological data was analyzed using Datawave Technologies Software company. […]

E18 cortical cells = experiment: Cell viability (CellTiterGlo) of cortical cells; format: cell-based, rat; conditions: pravastatin 2 μM for 5 days
Description: The cell viability assay was performed using CellTiterGlo (#G7571; Promega) according to manufacturer’s instructions. Briefly, equal amounts of medium and the mixture of regents A and B were added to the E18 cortical cells (DIV8) cultivated in clear bottom 96-well plates and incubated for 40min. The luminescence was analyzed in a plate reader.

mice = experiment: Object location memory (OLM) test; format: in vivo, mouse; conditions: wild-type mice, pravastatin co-treatment
Description: Object-location memory (OLM): this test was performed in a square arena (28cm side) with opaque walls containing cues (black stripes or spots). The adult male and female mice (18-22 weeks old) were placed for 3 consecutive days (15min per session) in the arena with two identical objects (table tennis balls glued to caps of 50ml Falcon tubes) in the same position throughout the sessions (pretest).

hippocampal cells = experiment: BDNF-induced neurite branching in hippocampal cells (Sholl analysis); format: cell-based, rat; conditions: pravastatin 1 μM/3 days, BDNF 10 ng/ml/3 days
Description: MG87.TRKB or primary cultured cortical cells were fixed with 4% paraformaldehyde in PBS, and unspecific binding sites were blocked with a blocking buffer (5% normal donkey serum, 1% Bovine serum albumin, 0.1% gelatin, 0.1% Triton X-100, 0.05% Tween-20 in PBS). The MG87.TRKB cells were stained with anti-GFP, while primary cultures were incubated with anti-actin. The fluorescence was obtained following incubation with secondary antibodies. The coverslips were mounted with Dako Fluorescence Mounting Medium (#S3023). Images were acquired with Zeiss LSM710 confocal microscope (63x oil objective).
For Sholl analysis of cultured hippocampal cells, confocal images were processed using FIJI ImageJ (NIH software), and the number of branches in the 80-μm range from the cell soma were counted using FIJI plugin.

TRKB:PLC-γ1 interaction = TRKB:PLC-γ1 interaction ELISA in cortical cells; format: cell-based, rat; conditions: pravastatin 1 μM/3 days
Description: The TRKB:pY (phosphorylated TRKB), TRKB:PLC-γ1, PLC-γ1:pTRKB.Y816 interactions and were determined by ELISA, based on the general method described in literature ([Antila et al., 2014]; [Fred et al., 2019]), with minor adjustments. Briefly, white 96-well plates (OptiPlate 96F-HB, Perkin Elmer) were coated with capturing anti-TRKB or PLC-γ1 antibody (1:1000) in carbonate buffer (pH = 9.8) overnight (ON) at 4°C. Following a blocking step with 2%BSA in TBS-T (2 h, RT), samples were incubated ON at 4°C. The incubation with antibody against pTRKB.Y816, PLC-γ1 or pY (1:2000, ON, 4°C) was followed by HRP-conjugated anti-Rb IgG (1:5000, 2h, RT) or HRP-conjugated streptavidin (1:10000, 2h, RT). Finally, the chemiluminescent signal generated by the reaction with ECL was analyzed in a plate reader (Varioskan Flash, Thermo Scientific).

T1 sequence (P04629 33-796): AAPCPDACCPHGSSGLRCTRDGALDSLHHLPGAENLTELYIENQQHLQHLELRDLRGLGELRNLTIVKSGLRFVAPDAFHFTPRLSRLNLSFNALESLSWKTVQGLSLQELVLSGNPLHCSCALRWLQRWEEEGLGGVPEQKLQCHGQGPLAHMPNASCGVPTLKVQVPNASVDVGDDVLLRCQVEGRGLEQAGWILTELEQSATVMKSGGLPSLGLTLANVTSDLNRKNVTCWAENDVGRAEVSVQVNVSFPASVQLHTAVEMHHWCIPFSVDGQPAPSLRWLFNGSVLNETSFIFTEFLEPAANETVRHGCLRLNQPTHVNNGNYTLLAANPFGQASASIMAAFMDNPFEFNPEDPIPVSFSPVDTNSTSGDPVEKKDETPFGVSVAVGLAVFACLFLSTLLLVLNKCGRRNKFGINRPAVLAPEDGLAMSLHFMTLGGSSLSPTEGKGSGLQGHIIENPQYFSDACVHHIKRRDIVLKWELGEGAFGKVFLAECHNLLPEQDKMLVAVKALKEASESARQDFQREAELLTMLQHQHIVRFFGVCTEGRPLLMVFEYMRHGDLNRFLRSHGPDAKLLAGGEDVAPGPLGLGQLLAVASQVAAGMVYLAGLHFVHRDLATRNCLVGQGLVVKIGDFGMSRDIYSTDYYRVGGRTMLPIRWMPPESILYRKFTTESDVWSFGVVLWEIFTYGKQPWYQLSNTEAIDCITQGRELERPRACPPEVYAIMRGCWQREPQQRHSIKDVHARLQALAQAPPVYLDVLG

| Structure (SMILES) | interaction of biotinylated fluoxetine with TRKA (TRKA) | pKd (TRKB [1]) | PLA signal between biotinylated FLX and TRKB (TRKB [2]) | effect on BDNF-induced increase in synaptic strength (LTP) (Sprague-Dawley rats) | neuronal survival (E18 cortical cells) | effect on R,R-HNK-improved object location memory (mice) | effect on BDNF-induced neurite branching (hippocampal cells) | effect on BDNF-induced TRKB-PLC-γ1 interaction (TRKB:PLC-γ1 interaction) |
| --- | --- | --- | --- | --- | --- | --- | --- | --- |
| CN(CCC(Oc1ccc(C(F)(F)F)cc1)c1ccccc1)C(=O)CCOCCOCCOCCOCCNC(=O)CCCC[C@@H]1SC[C@@H]2NC(=O)N[C@@H]21 (some centres unmarked) [biotinylated FLX] | negligible | 5.62 | robust PLA signal |  |  |  |  |  |
| CC[C@H](C)C(=O)O[C@H]1C[C@H](O)C=C2C=C[C@H](C)[C@H](CC[C@@H](O)C[C@@H](O)CC(=O)O)[C@H]21 [pravastatin] |  |  |  | partially prevented | reduced neuronal survival | prevented | prevented | prevented |
